Assay results reported in patent publication US20060069132A1, “Azolecarboxamide herbicides” (priority 2004, published 2006).

Tests used:
[1] = tested on: barnyardgrass; assay: Test B pre-/postemergence herbicide test; assay type: in vivo, Echinochloa crus-galli; details: for Plant response rating (0 to 100 scale), Barnyardgrass: 0 is no effect, 100 is complete control, preemergence; for Barnyardgrass plant response rating: Postemergence, scale 0 (no effect) to 100 (complete control)
In short: (§1)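 Seeds were planted and treated preemergence with compounds formulated in a non-phytotoxic solvent mixture containing surfactant, while plants at the 1- to 4-leaf stage (2 to 18 cm) received postemergence sprays. Flooded paddy plants were grown to the 2-leaf stage. After 13 to 15 days in a greenhouse, injury was visually rated 0–100 against untreated controls.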

[2] = tested on: Surinam grass; assay: Test B pre-/postemergence herbicide test; assay type: in vivo, Urochloa decumbens; details: for Plant response rating (0 to 100 scale), Surinam Grass: 0 is no effect, 100 is complete control, preemergence
In short: (§2)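 Greenhouse pot assay with simultaneous preemergence (treated seed) and postemergence (2–18 cm seedlings) applications of surfactant-containing, non-phytotoxic solvent formulations. Response scored visually 13–15 days later on a 0–100 scale, 100 meaning complete control.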

[3] = tested on: cocklebur; assay: Test B pre-/postemergence herbicide test; assay type: in vivo, Xanthium strumarium; details: for Plant response rating (0 to 100 scale), Cocklebur: 0 is no effect, 100 is complete control, preemergence
In short: as §1

[4] = tested on: corn; assay: Test B pre-/postemergence herbicide test; assay type: in vivo, Zea mays; details: for Plant response rating (0 to 100 scale), Corn: 0 is no effect, 100 is complete control, preemergence
In short: as §2

[5] = tested on: large crabgrass; assay: Test B pre-/postemergence herbicide test; assay type: in vivo, Digitaria sanguinalis; details: for Plant response rating (0 to 100 scale), Crabgrass, Large: 0 is no effect, 100 is complete control, preemergence
In short: as §2

[6] = tested on: giant foxtail; assay: Test B pre-/postemergence herbicide test; assay type: in vivo, Setaria faberi; details: for Plant response rating (0 to 100 scale), Foxtail, Giant: 0 is no effect, 100 is complete control, preemergence
In short: as §2

[7] = tested on: lambsquarters; assay: Test B pre-/postemergence herbicide test; assay type: in vivo, Chenopodium album; details: for Plant response rating (0 to 100 scale), Lambsquarters: 0 is no effect, 100 is complete control, preemergence
In short: as §2

[8] = tested on: morningglory; assay: Test B pre-/postemergence herbicide test; assay type: in vivo, Ipomoea coccinea; details: for Plant response rating (0 to 100 scale), Morningglory: 0 is no effect, 100 is complete control, preemergence
In short: as §1

[9] = tested on: pigweed; assay: Test B pre-/postemergence herbicide test; assay type: in vivo, Amaranthus retroflexus; details: for Plant response rating (0 to 100 scale), Pigweed: 0 is no effect, 100 is complete control, preemergence
In short: as §2

[10] = tested on: velvetleaf; assay: Test B pre-/postemergence herbicide test; assay type: in vivo, Abutilon theophrasti; details: for Plant response rating (0 to 100 scale), Velvetleaf: 0 is no effect, 100 is complete control, preemergence
In short: as §2

[11] = tested on: blackgrass; assay: Test B postemergence herbicide test; assay type: in vivo, Alopecurus myosuroides
In short: (§3)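 Postemergence plants were sprayed with formulated test chemicals at 2 to 18 cm height (1- to 4-leaf stage); paddy species were grown to the 2-leaf stage. After 13 to 15 days in a greenhouse, injury was rated visually against untreated controls on a 0–100 scale (0 = no effect, 100 = complete control).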

[12] = tested on: wheat; assay: Test B postemergence herbicide test; assay type: in vivo, Triticum aestivum; set-up: key to Wheat plant response rating: 0 = no effect, 100 = complete control
In short: (§4)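 Each value is a visual 0–100 response rating taken against controls 13 to 15 days after treatment in the greenhouse. Plants received formulated chemical postemergence at the 1- to 4-leaf stage or, in flooded paddy, at the 2-leaf stage.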

[13] = tested on: wild oat; assay: Test B postemergence herbicide test; assay type: in vivo, Avena fatua
In short: as §4

[14] = tested on: rice; assay: Test B flooded paddy test; assay type: in vivo, Oryza sativa; details: scale 0 to 100 (0 no effect, 100 complete control)
In short: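 Greenhouse test; postemergence application to plants at 1–4 leaves (2–18 cm); paddy species at 2 leaves; evaluated visually vs controls at 13–15 days; scale 0–100 (100 = complete control).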

[15] = tested on: small flower umbrella sedge; assay: Test B flooded paddy test; assay type: in vivo, Cyperus difformis; details: scale 0 to 100 (0 no effect, 100 complete control)
In short: as §3

[16] = tested on: ducksalad; assay: Test B flooded paddy test; assay type: in vivo, Heteranthera limosa; details: scale 0 to 100 (0 no effect, 100 complete control)
In short: as §3

[17] = tested on: barnyardgrass; assay: Test B flooded paddy test; assay type: in vivo, Echinochloa crus-galli; details: scale 0 to 100 (0 no effect, 100 complete control)
In short: as §3

[18] = Postemergence, 500 g ai/ha, scale 0 (no effect) to 100 (complete control)
[19] = postemergence, 125 g ai/ha, scale 0 to 100
[20] = 500 g ai/ha, scale 0 to 100, 0 no effect, 100 complete control, preemergence

## CCN(CC)C(=O)c1cncc(NC(=O)c2nn(C(C)(C)C)nc2C)c1 [Compound 428]
[1]; 125 g ai/ha
  Plant response rating (0 to 100 scale), Barnyardgrass: 0
  Barnyardgrass plant response rating: 0
[1]; 500 g ai/ha
  Barnyardgrass plant response rating: 10
[2]; 125 g ai/ha
  Plant response rating (0 to 100 scale), Surinam Grass: 0
[2]; [18]
  Surinam Grass plant response rating: 20
[2]; [19]
  Surinam Grass plant response rating: 10
[3]; 125 g ai/ha
  Plant response rating (0 to 100 scale), Cocklebur: 0
[3]; [18]
  Cocklebur plant response rating: 10
[3]; [19]
  Cocklebur plant response rating: 0
[4]; 125 g ai/ha
  Plant response rating (0 to 100 scale), Corn: 0
[4]; [18]
  Corn plant response rating: 10
[4]; [19]
  Corn plant response rating: 0
[5]; 125 g ai/ha
  Plant response rating (0 to 100 scale), Crabgrass, Large: 0
[5]; [18]
  Crabgrass, Large plant response rating: 20
[5]; [19]
  Crabgrass, Large plant response rating: 10
[6]; 125 g ai/ha
  Plant response rating (0 to 100 scale), Foxtail, Giant: 0
[6]; [18]
  Foxtail, Giant plant response rating: 10
[6]; [19]
  Foxtail, Giant plant response rating: 10
[7]; 125 g ai/ha
  Plant response rating (0 to 100 scale), Lambsquarters: 0
[7]; [18]
  Lambsquarters plant response rating: 40
[7]; [19]
  Lambsquarters plant response rating: 10
[8]; 125 g ai/ha
  Plant response rating (0 to 100 scale), Morningglory: 0
[8]; [18]
  Morningglory plant response rating: 30
[8]; [19]
  Morningglory plant response rating: 20
[9]; 125 g ai/ha
  Plant response rating (0 to 100 scale), Pigweed: 30
[9]; [18]
  Pigweed plant response rating: 30
[9]; [19]
  Pigweed plant response rating: 20
[10]; 125 g ai/ha
  Plant response rating (0 to 100 scale), Velvetleaf: 0
[10]; [18]
  Velvetleaf plant response rating: 20
[10]; [19]
  Velvetleaf plant response rating: 10
[11]; [18]
  Blackgrass plant response rating: 0
[11]; [19]
  Blackgrass plant response rating: 0
[12]; [20]
  Wheat plant response rating: 0
[12]; [18]
  Wheat plant response rating: 0
[12]; [19]
  Wheat plant response rating: 0
[13]; [18]
  Oat, Wild plant response rating: 0
[13]; [19]
  Oat, Wild plant response rating: 0
[14]; 1000 g ai/ha
  Rice plant response rating: 30
[15]; 1000 g ai/ha
  Sedge, Umbrella plant response rating: 0
[16]; 1000 g ai/ha
  Ducksalad plant response rating: 0
[17]; 1000 g ai/ha
  Barnyardgrass plant response rating: 0

## C=Cc1nn(C(C)(C)C)nc1C(=O)Nc1cccc(C(=O)N(C)C)c1 [Compound 445]
[1]; 125 g ai/ha
  Barnyardgrass plant response rating: 30
[1]; 500 g ai/ha
  Barnyardgrass plant response rating: 40
[2]; [18]
  Surinam Grass plant response rating: 30
[2]; [19]
  Surinam Grass plant response rating: 20
[3]; [18]
  Cocklebur plant response rating: 80
[3]; [19]
  Cocklebur plant response rating: 40
[4]; [18]
  Corn plant response rating: 40
[4]; [19]
  Corn plant response rating: 20
[5]; [18]
  Crabgrass, Large plant response rating: 40
[5]; [19]
  Crabgrass, Large plant response rating: 30
[6]; [18]
  Foxtail, Giant plant response rating: 30
[6]; [19]
  Foxtail, Giant plant response rating: 30
[7]; [18]
  Lambsquarters plant response rating: 80
[7]; [19]
  Lambsquarters plant response rating: 60
[8]; [18]
  Morningglory plant response rating: 80
[8]; [19]
  Morningglory plant response rating: 60
[9]; [18]
  Pigweed plant response rating: 60
[9]; [19]
  Pigweed plant response rating: 50
[10]; [18]
  Velvetleaf plant response rating: 50
[10]; [19]
  Velvetleaf plant response rating: 50
[11]; [18]
  Blackgrass plant response rating: 50
[11]; [19]
  Blackgrass plant response rating: 40
[12]; [20]
  Wheat plant response rating: 100
[12]; [18]
  Wheat plant response rating: 50
[12]; [19]
  Wheat plant response rating: 30
[13]; [18]
  Oat, Wild plant response rating: 60
[13]; [19]
  Oat, Wild plant response rating: 40
[14]; 125 g ai/ha
  Rice plant response rating: 80
[15]; 125 g ai/ha
  Sedge, Umbrella plant response rating: 80
[16]; 125 g ai/ha
  Ducksalad plant response rating: 80
[17]; 125 g ai/ha
  Barnyardgrass plant response rating: 90

## CCOC(=O)c1cncc(NC(=O)c2nn(C(C)(C)C)nc2C)c1 [Compound 422]
[1]; 125 g ai/ha
  Plant response rating (0 to 100 scale), Barnyardgrass: 0
  Barnyardgrass plant response rating: 0
[1]; 500 g ai/ha
  Barnyardgrass plant response rating: 0
[2]; 125 g ai/ha
  Plant response rating (0 to 100 scale), Surinam Grass: 0
[2]; [18]
  Surinam Grass plant response rating: 0
[2]; [19]
  Surinam Grass plant response rating: 0
[3]; 125 g ai/ha
  Plant response rating (0 to 100 scale), Cocklebur: 0
[3]; [18]
  Cocklebur plant response rating: 0
[3]; [19]
  Cocklebur plant response rating: 0
[4]; 125 g ai/ha
  Plant response rating (0 to 100 scale), Corn: 0
[4]; [18]
  Corn plant response rating: 0
[4]; [19]
  Corn plant response rating: 0
[5]; 125 g ai/ha
  Plant response rating (0 to 100 scale), Crabgrass, Large: 0
[5]; [18]
  Crabgrass, Large plant response rating: 0
[5]; [19]
  Crabgrass, Large plant response rating: 0
[6]; 125 g ai/ha
  Plant response rating (0 to 100 scale), Foxtail, Giant: 0
[6]; [18]
  Foxtail, Giant plant response rating: 0
[6]; [19]
  Foxtail, Giant plant response rating: 0
[7]; 125 g ai/ha
  Plant response rating (0 to 100 scale), Lambsquarters: 0
[7]; [18]
  Lambsquarters plant response rating: 0
[7]; [19]
  Lambsquarters plant response rating: 0
[8]; 125 g ai/ha
  Plant response rating (0 to 100 scale), Morningglory: 0
[8]; [18]
  Morningglory plant response rating: 0
[8]; [19]
  Morningglory plant response rating: 0
[9]; 125 g ai/ha
  Plant response rating (0 to 100 scale), Pigweed: 0
[9]; [18]
  Pigweed plant response rating: 0
[9]; [19]
  Pigweed plant response rating: 0
[10]; 125 g ai/ha
  Plant response rating (0 to 100 scale), Velvetleaf: 0
[10]; [18]
  Velvetleaf plant response rating: 0
[10]; [19]
  Velvetleaf plant response rating: 0
[11]; [18]
  Blackgrass plant response rating: 20
[11]; [19]
  Blackgrass plant response rating: 20
[12]; [20]
  Wheat plant response rating: 0
[12]; [18]
  Wheat plant response rating: 0
[12]; [19]
  Wheat plant response rating: 0
[13]; [18]
  Oat, Wild plant response rating: 0
[13]; [19]
  Oat, Wild plant response rating: 0
[14]; 1000 g ai/ha
  Rice plant response rating: 30
[15]; 1000 g ai/ha
  Sedge, Umbrella plant response rating: 70
[16]; 1000 g ai/ha
  Ducksalad plant response rating: 20
[17]; 1000 g ai/ha
  Barnyardgrass plant response rating: 30
